Results published in patent US8124780B2, “Benzimidazole compound” (priority 2005, dated 2012).
Structures can show the parent of a compound that is named as a salt. Where two headings read alike, the source gives them in different places.

Test system: gastric acid secretion
Assay: animal or person
Assay type: in vivo, dog
Conditions: for inhibition in vivo at 0.8 mg/kg / inhibition in vivo at 1.6 mg/kg / inhibition in vivo at 0.4 mg/kg / inhibition in vivo at 0.2 mg/kg: Canis lupus familiaris
[1] = iv, 24 h, read-out: Persistency of inhibitory effect against gastric acid secretion (%)
[2] = iv, read-out: Inhibitory effect against gastric acid secretion (%)

Row | SMILES | inhibition in vivo at 0.8 mg/kg [1] [%] | inhibition in vivo at 0.8 mg/kg [2] [%] | inhibition in vivo at 1.6 mg/kg [1] [%] | inhibition in vivo at 1.6 mg/kg [2] [%] | further results
1 | [O-][S+](Cc1cc(OCC2COC(CF)(CF)OC2)ccn1)c1nc2ccccc2[nH]1 (centres unmarked) [Example 59, 2-(((4-((2,2-bis(fluoromethyl)-1,3-dioxan-5-yl)methoxy)pyridin-2-yl)methyl)sulfinyl)-1H-benzimidazole sodium salt] | 77 | 89 | – | – | –
2 | Cc1c(OCC2COC3(CCCC3)OC2)ccnc1C[S+]([O-])c1nc2ccccc2[nH]1 (centres unmarked) [Example 21, 2-(((4-(6,10-dioxaspiro[4.5]dec-8-ylmethoxy)-3-methylpyridin-2-yl)methyl)sulfinyl)-1H-benzimidazole sodium salt] | – | – | 94 | 100 | –
3 | Cc1cnc(C[S+]([O-])c2nc3ccccc3[nH]2)c(C)c1OCC1COC2(CCC2)OC1 (centres unmarked) [Example 13, 2-(((4-(5,9-dioxaspiro[3.5]non-7-ylmethoxy)-3,5-dimethylpyridin-2-yl)methyl)sulfinyl)-1H-benzimidazole sodium salt] | 74 | 100 | – | – | –
4 | Cc1c(OCC2COCOC2)ccnc1C[S+]([O-])c1nc2ccccc2[nH]1 (centres unmarked) [Example 53, 2-(((4-(1,3-dioxan-5-ylmethoxy)-3-methylpyridin-2-yl)methyl)sulfinyl)-1H-benzimidazole sodium salt] | 87 | 99 | – | – | –
5 | Cc1c(OCC23COC(C)(OC2)OC3)ccnc1C[S+]([O-])c1nc2ccccc2[n-]1.[Na+] (centres unmarked) [Example 24, 2-(((3-methyl-4-((1-methyl-2,6,7-trioxabicyclo[2.2.2]oct-4-yl)methoxy)pyridin-2-yl)methyl)sulfinyl)-1H-benzimidazole sodium salt] | – | – | – | – | Inhibitory effect against gastric acid secretion (%) (dog, in vivo, iv, 1.6 mg/kg): 88%; Persistency of inhibitory effect against gastric acid secretion (%) (dog, in vivo, iv, 1.6 mg/kg): 80%
6 | Cc1c(OCCC2COC(C)(C)OC2)ccnc1C[S+]([O-])c1nc2ccccc2[nH]1 (centres unmarked) [Example 28, 2-(((4-(2-(2,2-dimethyl-1,3-dioxan-5-yl)ethoxy)-3-methylpyridin-2-yl)methyl)sulfinyl)-1H-benzimidazole sodium salt] | – | – | 77 | 94 | –
7 | Cc1ccc2[nH]c([S+]([O-])Cc3nccc(OCCC4COC(C)(C)O4)c3C)nc2c1 (centres unmarked) [Example 47, 2-(((4-(2-(2,2-dimethyl-1,3-dioxolan-4-yl)ethoxy)-3-methylpyridin-2-yl)methyl)sulfinyl)-5-methyl-1H-benzimidazole sodium salt] | – | – | 87 | 100 | –
8 | CCCC1(CCOc2ccnc(C[S+]([O-])c3nc4ccccc4[nH]3)c2C)OCCO1 (centres unmarked) [Example 3, 2-(((3-methyl-4-(2-(2-propyl-1,3-dioxolan-2-yl)ethoxy)pyridin-2-yl)methyl)sulfinyl)-1H-benzimidazole sodium salt] | 86 | 100 | – | – | –
9 | Cc1c(OCCC2COC3(CCC3)OC2)ccnc1C[S+]([O-])c1nc2ccccc2[nH]1 (centres unmarked) [Example 31, 2-(((4-(2-(5,9-dioxaspiro[3.5]non-7-yl)ethoxy)-3-methylpyridin-2-yl)methyl)sulfinyl)-1H-benzimidazole sodium salt] | – | – | 97 | 100 | –
10 | [O-][S+](Cc1cc(OCC2COC3(CCCC3)OC2)ccn1)c1nc2ccccc2[nH]1 (centres unmarked) [Example 58, 2-(((4-(6,10-dioxaspiro[4.5]dec-8-ylmethoxy)pyridin-2-yl)methyl)sulfinyl)-1H-benzimidazole sodium salt] | 77 | 95 | – | – | –
11 | CCC1(CC)OCC(COc2ccnc(C[S+]([O-])c3nc4ccccc4[nH]3)c2C)CO1 (centres unmarked) [Example 23, 2-(((4-((2,2-diethyl-1,3-dioxan-5-yl)methoxy)-3-methylpyridin-2-yl)methyl)sulfinyl)-1H-benzimidazole sodium salt] | – | – | 92 | 100 | –
12 | Cc1c(OCC2COC(CF)(CF)OC2)ccnc1C[S+]([O-])c1nc2ccccc2[nH]1 (centres unmarked) [Example 7, 2-(((4-((2,2-bis(fluoromethyl)-1,3-dioxan-5-yl)methoxy)-3-methylpyridin-2-yl)methyl)sulfinyl)-1H-benzimidazole sodium salt] | 90 | 99 | – | – | –
13 | Cc1c(OCC2COC3(CCC3)OC2)ccnc1C[S+]([O-])c1nc2ccccc2[nH]1 (centres unmarked) [Example 22, 2-(((4-(5,9-dioxaspiro[3.5]non-7-ylmethoxy)-3-methylpyridin-2-yl)methyl)sulfinyl)-1H-benzimidazole sodium salt] | – | – | 97 | 100 | –
14 | Cc1c(OCCC2(C)OCC3(CO2)OCCO3)ccnc1C[S+]([O-])c1nc2ccccc2[nH]1 (centres unmarked) [Example 73, 2-(((3-methyl-4-(2-(8-methyl-1,4,7,9-tetraoxaspiro[4.5]dec-8-yl)ethoxy)pyridin-2-yl)methyl)sulfinyl)-1H-benzimidazole sodium salt] | 94 | 100 | – | – | –
15 | Cc1cnc(C[S+]([O-])c2nc3cc(F)ccc3[nH]2)c(C)c1OCC1COC(C)(C)OC1 (centres unmarked) [Example 56, 2-(((4-((2,2-dimethyl-1,3-dioxan-5-yl)methoxy)-3,5-dimethylpyridin-2-yl)methyl)sulfinyl)-5-fluoro-1H-benzimidazole sodium salt] | 74 | 84 | – | – | –
16 | Cc1c(OCC2OCCO2)ccnc1C[S+]([O-])c1nc2ccccc2[nH]1 (centres unmarked) [Example 66, 2-(((4-(1,3-dioxolan-2-ylmethoxy)-3-methylpyridin-2-yl)methyl)sulfinyl)-1H-benzimidazole sodium salt] | – | – | 79 | 100 | –
17 | Cc1c(OC2CCC3(CC2)OCCO3)ccnc1C[S+]([O-])c1nc2ccccc2[nH]1 (centres unmarked) [Example 27, 2-(((4-(1,4-dioxaspiro[4.5]dec-8-yloxy)-3-methylpyridin-2-yl)methyl)sulfinyl)-1H-benzimidazole sodium salt] | – | – | 92 | 100 | –
18 | Cc1c(OCCC2COC(C)(C)O2)ccnc1C[S+]([O-])c1nc2ccccc2[nH]1 (centres unmarked) [Example 64, 2-(((4-(2-(2,2-dimethyl-1,3-dioxolan-4-yl)ethoxy)-3-methylpyridin-2-yl)methyl)sulfinyl)-1H-benzimidazole sodium salt] | 78 | 100 | – | – | –
19 | Cc1c(OCCC2(C)OCC(C)(C)CO2)ccnc1C[S+]([O-])c1nc2ccccc2[nH]1 (centres unmarked) [Example 34, 2-(((3-methyl-4-(2-(2,5,5-trimethyl-1,3-dioxan-2-yl)ethoxy)pyridin-2-yl)methyl)sulfinyl)-1H-benzimidazole sodium salt] | – | – | 78 | 100 | –
20 | Cc1c(OCC2(C)OCCO2)ccnc1C[S+]([O-])c1nc2ccccc2[nH]1 (stereo not drawn) [Example 70, Sodium salt of an optical isomer of 2-(((3-methyl-4-((2-methyl-1,3-dioxolan-2-yl)methoxy)pyridin-2-yl)methyl)sulfinyl)-1H-benzimidazole] | – | – | – | – | inhibition in vivo at 1.6 mg/kg (i.d., 24 h, dose 1.6 mg/kg i.d., second day, 24 hours after administration, histamine i.v., read-out: Persistency of inhibitory effect against gastric acid secretion (%)): 77%; inhibition in vivo at 1.6 mg/kg (i.d., dose 1.6 mg/kg i.d., first day, 1 h 40 min to 2 h after administration, histamine i.v., read-out: Inhibitory effect against gastric acid secretion (%)): 100%
21 | Cc1c(OCC2OCC(C)(C)CO2)ccnc1C[S+]([O-])c1nc2ccccc2[nH]1 (centres unmarked) [Example 1, 2-(((4-((5,5-dimethyl-1,3-dioxan-2-yl)methoxy)-3-methylpyridin-2-yl)methyl)sulfinyl)-1H-benzimidazole sodium salt] | 90 | 100 | – | – | inhibition in vivo at 0.4 mg/kg [1]: 76%; inhibition in vivo at 0.4 mg/kg [2]: 94%
22 | Cc1c(OCC2OCC3(CC3)CO2)ccnc1C[S+]([O-])c1nc2ccccc2[nH]1 (centres unmarked) [Example 2, 2-(((4-(5,7-dioxaspiro[2.5]oct-6-ylmethoxy)-3-methylpyridin-2-yl)methyl)sulfinyl)-1H-benzimidazole sodium salt] | 96 | 100 | – | – | inhibition in vivo at 0.2 mg/kg [1]: 52%; inhibition in vivo at 0.4 mg/kg [1]: 90%; inhibition in vivo at 0.2 mg/kg [2]: 83%; inhibition in vivo at 0.4 mg/kg [2]: 100%
23 | COCC1(CCOc2ccnc(C[S+]([O-])c3nc4ccccc4[nH]3)c2C)OCCCO1 (centres unmarked) [Example 36, 2-(((4-(2-(2-(methoxymethyl)-1,3-dioxan-2-yl)ethoxy)-3-methylpyridin-2-yl)methyl)sulfinyl)-1H-benzimidazole sodium salt] | – | – | 90 | 100 | –
24 | Cc1c(OCC2COC(C)(C)OC2)ccnc1C[S+]([O-])c1nc2ccccc2[nH]1 (centres unmarked) [Example 12, 2-(((4-((2,2-dimethyl-1,3-dioxan-5-yl)methoxy)-3-methylpyridin-2-yl)methyl)sulfinyl)-1H-benzimidazole sodium salt] | 86 | 100 | – | – | –
25 | CCC1(COc2ccnc(C[S+]([O-])c3nc4ccccc4[nH]3)c2C)OCCCO1 (centres unmarked) [Example 42, 2-(((4-((2-ethyl-1,3-dioxan-2-yl)methoxy)-3-methylpyridin-2-yl)methyl)sulfinyl)-1H-benzimidazole sodium salt] | 72 | 60 | – | – | –
26 | CC1(CCOc2ccnc(C[S+]([O-])c3nc4ccccc4[nH]3)c2)OCC2(CO1)OCCO2 (centres unmarked) [Example 75, 2-(((4-(2-(8-methyl-1,4,7,9-tetraoxaspiro[4.5]dec-8-yl)ethoxy)pyridin-2-yl)methyl)sulfinyl)-1H-benzimidazole sodium salt] | 75 | 85 | – | – | –
27 | Cc1c(OCCC2(C)OCCCO2)ccnc1C[S+]([O-])c1nc2ccccc2[nH]1 (centres unmarked) [Example 30, 2-(((3-methyl-4-(2-(2-methyl-1,3-dioxan-2-yl)ethoxy)pyridin-2-yl)methyl)sulfinyl)-1H-benzimidazole sodium salt] | 63 | 100 | 95 | 100 | –
